According to ChEMBL document CHEMBL3045140, “Synthesis, docking studies and antioxidant activity of some chalcone and aurone derivatives” (Med Chem Res, 2013):
In brackets after ≈: the same amount, converted by molar mass.

test system: not listed separately; experiment: Antioxidant activity assessed as reduction of Fe3+ to Fe2+ after 20 min by spectrophotometeric analysis; type: functional

IC50 | Structure (SMILES)
168.23 µg/mL (≈ 564 µM) | COc1ccc(/C=C2\Oc3cc(O)ccc3C2=O)cc1OC
70.1 µg/mL (≈ 249 µM) | CN(C)c1ccc(/C=C2\Oc3cc(O)ccc3C2=O)cc1
188.31 µg/mL (≈ 691 µM) | O=C1/C(=C/c2ccc(Cl)cc2)Oc2cc(O)ccc21 [6-HYDROXY-4'-CHLORO AURONE]
134.45 µg/mL (≈ 448 µM) | COc1ccc(/C=C/C(=O)c2ccc(O)cc2O)cc1OC

More lines, now with the values behind:

Structure (SMILES) | IC50
O=C1O[C@H]([C@@H](O)CO)C(O)=C1O [ASCORBIC ACID] | 53.24 µg/mL (≈ 302 µM)
CN(C)c1ccc(/C=C/C(=O)c2cc(O)ccc2O)cc1 | 47.79 µg/mL (≈ 169 µM)
O=C(/C=C/c1ccc(Cl)cc1)c1ccc(O)cc1O | 155.87 µg/mL (≈ 567 µM)
COc1ccc(/C=C2\Oc3ccc(O)cc3C2=O)cc1OC [5-HYDROXY-3',4'-DIMETHOXY AURONE] | 151.43 µg/mL (≈ 508 µM)
CN(C)c1ccc(/C=C/C(=O)c2ccc(O)cc2O)cc1 | 53.6 µg/mL (≈ 189 µM)
CN(C)c1ccc(/C=C2\Oc3ccc(O)cc3C2=O)cc1 | 64.16 µg/mL (≈ 228 µM)
COc1ccc(/C=C/C(=O)c2cc(O)ccc2O)cc1OC | 111.79 µg/mL (≈ 372 µM)

test system: not listed separately; experiment: Antioxidant activity assessed as iron chelating activity after 10 min by spectrophotometeric analysis; type: functional

IC50 | Structure (SMILES)
213.83 µg/mL (≈ 717 µM) | COc1ccc(/C=C2\Oc3cc(O)ccc3C2=O)cc1OC
179.33 µg/mL (≈ 637 µM) | CN(C)c1ccc(/C=C2\Oc3cc(O)ccc3C2=O)cc1
179.18 µg/mL (≈ 657 µM) | O=C1/C(=C/c2ccc(Cl)cc2)Oc2cc(O)ccc21 [6-HYDROXY-4'-CHLORO AURONE]
166.73 µg/mL (≈ 555 µM) | COc1ccc(/C=C/C(=O)c2ccc(O)cc2O)cc1OC

Continued, compound first:

Structure (SMILES) | IC50
O=C1O[C@H]([C@@H](O)CO)C(O)=C1O [ASCORBIC ACID] | 126.12 µg/mL (≈ 716 µM)
CN(C)c1ccc(/C=C/C(=O)c2cc(O)ccc2O)cc1 | 90.81 µg/mL (≈ 321 µM)
O=C(/C=C/c1ccc(Cl)cc1)c1ccc(O)cc1O | 159.97 µg/mL (≈ 582 µM)
COc1ccc(/C=C2\Oc3ccc(O)cc3C2=O)cc1OC [5-HYDROXY-3',4'-DIMETHOXY AURONE] | 185.05 µg/mL (≈ 620 µM)
CN(C)c1ccc(/C=C/C(=O)c2ccc(O)cc2O)cc1 | 140.16 µg/mL (≈ 495 µM)
CN(C)c1ccc(/C=C2\Oc3ccc(O)cc3C2=O)cc1 | 149.98 µg/mL (≈ 533 µM)
COc1ccc(/C=C/C(=O)c2cc(O)ccc2O)cc1OC | 159.22 µg/mL (≈ 530 µM)

test system: Radical scavenging activity; experiment: Antioxidant activity assessed as DPPH free radical scavenging activity after 30 min by spectrophotometeric analysis; type: functional

IC50 | Structure (SMILES) | Activity
173.29 µg/mL (≈ 581 µM) | COc1ccc(/C=C2\Oc3cc(O)ccc3C2=O)cc1OC | Dose-dependent effect
109.92 µg/mL (≈ 391 µM) | CN(C)c1ccc(/C=C2\Oc3cc(O)ccc3C2=O)cc1 | Dose-dependent effect
266.12 µg/mL (≈ 976 µM) | O=C1/C(=C/c2ccc(Cl)cc2)Oc2cc(O)ccc21 [6-HYDROXY-4'-CHLORO AURONE] | Dose-dependent effect
35.2 µg/mL (≈ 117 µM) | COc1ccc(/C=C/C(=O)c2ccc(O)cc2O)cc1OC | Dose-dependent effect

Continued, compound first:

Structure (SMILES) | IC50 | Activity
O=C1O[C@H]([C@@H](O)CO)C(O)=C1O [ASCORBIC ACID] | 98.77 µg/mL (≈ 561 µM) | 
CN(C)c1ccc(/C=C/C(=O)c2cc(O)ccc2O)cc1 | 24.32 µg/mL (≈ 85.8 µM) | Dose-dependent effect
O=C(/C=C/c1ccc(Cl)cc1)c1ccc(O)cc1O | 264.95 µg/mL (≈ 964 µM) | Dose-dependent effect
COc1ccc(/C=C2\Oc3ccc(O)cc3C2=O)cc1OC [5-HYDROXY-3',4'-DIMETHOXY AURONE] | 222.19 µg/mL (≈ 745 µM) | Dose-dependent effect
CN(C)c1ccc(/C=C/C(=O)c2ccc(O)cc2O)cc1 | 65.8 µg/mL (≈ 232 µM) | Dose-dependent effect
CN(C)c1ccc(/C=C2\Oc3ccc(O)cc3C2=O)cc1 | 243 µg/mL (≈ 864 µM) | Dose-dependent effect
COc1ccc(/C=C/C(=O)c2cc(O)ccc2O)cc1OC | 132.22 µg/mL (≈ 440 µM) | Dose-dependent effect

test system: not listed separately; experiment: Antioxidant activity assessed as H2O2 scavenging activity after 10 min by spectrophotometeric analysis; type: functional

IC50 | Structure (SMILES) | Activity
248.16 µg/mL (≈ 832 µM) | COc1ccc(/C=C2\Oc3cc(O)ccc3C2=O)cc1OC | Dose-dependent effect
193.91 µg/mL (≈ 689 µM) | CN(C)c1ccc(/C=C2\Oc3cc(O)ccc3C2=O)cc1 | Dose-dependent effect
178.13 µg/mL (≈ 653 µM) | O=C1/C(=C/c2ccc(Cl)cc2)Oc2cc(O)ccc21 [6-HYDROXY-4'-CHLORO AURONE] | Dose-dependent effect
70.1 µg/mL (≈ 233 µM) | COc1ccc(/C=C/C(=O)c2ccc(O)cc2O)cc1OC | Dose-dependent effect

Second part, the compound before the results:

Structure (SMILES) | IC50 | Activity
O=C1O[C@H]([C@@H](O)CO)C(O)=C1O [ASCORBIC ACID] | 445.92 µg/mL (≈ 2530 µM) | 
CN(C)c1ccc(/C=C/C(=O)c2cc(O)ccc2O)cc1 | 153.85 µg/mL (≈ 543 µM) | Dose-dependent effect
O=C(/C=C/c1ccc(Cl)cc1)c1ccc(O)cc1O | 129.02 µg/mL (≈ 470 µM) | Dose-dependent effect
COc1ccc(/C=C2\Oc3ccc(O)cc3C2=O)cc1OC [5-HYDROXY-3',4'-DIMETHOXY AURONE] | 206.57 µg/mL (≈ 693 µM) | Dose-dependent effect
CN(C)c1ccc(/C=C/C(=O)c2ccc(O)cc2O)cc1 | 135.88 µg/mL (≈ 480 µM) | Dose-dependent effect
CN(C)c1ccc(/C=C2\Oc3ccc(O)cc3C2=O)cc1 | 174.07 µg/mL (≈ 619 µM) | Dose-dependent effect
COc1ccc(/C=C/C(=O)c2cc(O)ccc2O)cc1OC | 89.59 µg/mL (≈ 298 µM) | Dose-dependent effect
